PubChem BioAssay (NCI)
Values joined by “and” are separate entries in the source; they are usually repeats but may differ in a detail not shown here. Equal entries are not always repeated.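 Test compounds were applied to cells in 96-well plates for 48 hours at 5 doses. GI50 = concentration required for 50% inhibition of growth. TGI is the concentration that stops growth completely.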

Key:
Assay in all cases: NCI-60 cell line screen, 48 h
PC-3 prostate = system: PC-3 prostate
MCF7 breast = system: MCF7 breast
OVCAR-3 ovarian = system: OVCAR-3 ovarian
NCI-H522 lung = system: NCI-H522 lung
RXF 393 renal = system: RXF 393 renal
BT-549 breast = system: BT-549 breast
SR leukemia = system: SR leukemia
MDA-MB-231 breast = system: MDA-MB-231 breast
CAKI-1 renal = system: CAKI-1 renal
RPMI-8226 leukemia = system: RPMI-8226 leukemia

SMILES	GI50 (PC-3 prostate) [µM]	TGI (PC-3 prostate) [µM]	GI50 (MCF7 breast) [µM]	TGI (MCF7 breast) [µM]	GI50 (OVCAR-3 ovarian) [µM]	TGI (OVCAR-3 ovarian)	GI50 (NCI-H522 lung) [µM]	TGI (NCI-H522 lung)	GI50 (RXF 393 renal) [µM]	TGI (RXF 393 renal)	GI50 (BT-549 breast) [µM]	TGI (BT-549 breast) [µM]	GI50 (SR leukemia) [µM]	TGI (SR leukemia) [µM]	GI50 (MDA-MB-231 breast) [µM]	TGI (MDA-MB-231 breast) [µM]	GI50 (CAKI-1 renal) [µM]	TGI (CAKI-1 renal)	GI50 (RPMI-8226 leukemia) [µM]	TGI (RPMI-8226 leukemia)
C=CC(=O)Nc1cc(Nc2ncc(C(=O)OC(C)C)c(-c3cn(C)c4ccccc34)n2)c(OC)cc1N(C)CCN(C)C	3.19	9.54	2.12	7.62	2.58	12.3 µM	0.02	5.74 µM	1.86	6.62 µM	7.41	21.4	3.04	> 33.7	2.66	8.26	1.32	9.32 µM	2.86	14.6 µM
COc1cc2c(c(OC)c1OC)-c1ccc(NNC(N)=S)c(=O)cc1[C@@H](NC(C)=O)CC2	0.29	> 100	0.372	> 100	0.238	0.623 µM	0.55	> 100 µM	0.298	0.747 µM	0.37		0.279	> 100	0.327	3.52	11.7	> 100 µM	0.39	> 29.4 µM
OCCN(CCO)c1ncnc2c1ncn2Cc1ccc(CCl)cc1	14	33.7	6.3	32.5	19.4	34.9 µM	18.5	46.6 µM	12	37.1 µM	11.7	24.6	6.94	> 100	18	35.5	14.5	30 µM	17.2	> 100 µM
O=C(Nc1ccccc1)c1c(O)[nH]c(=S)[nH]c1=O		85.2		92.8	10.9	74.8 µM and 71.3 µM	83	58.3 µM and > 250 µM		96.3 µM and 68.9 µM		72		53.8		94	28	58.1 µM and 127 µM		79 µM and > 25 µM
OC1CSSC1Cn1cnc2c(Nc3ccc(OCc4cccc(F)c4)c(Cl)c3)ncnc21 (configuration not stated)	0.749	1.87	0.509	1.29	0.748	1.93 µM	1.12	4.15 µM	5.12	10.7 µM	4.98	12.1	0.407	1.59	0.986	4.53	2.2	6.85 µM	1.06	3.74 µM
Cc1ccc(NC(=O)Nc2ccc(-c3cccnc3)cc2N2CCC(CO)CC2)cc1	5.6	> 100	1.59	> 100	1.67	5.23 µM	1.66	5.12 µM	2.18	4.69 µM	1.96	9.2	2.83	> 100	2.42	> 100	3.82	> 100 µM	3.02	14.3 µM
COc1cccc(C2c3cc4c(cc3OC(C)(N3CCCC3)C2C)OCO4)c1O (configuration not stated)		> 43.5		> 37.1		5.45 µM		6.01 µM		> 40.6 µM		48.2		19.3		18.4		28.7 µM		36.5 µM
Cc1ccc(CN2CCC(C(=O)Nc3ccc(-c4cc5ccccc5[nH]4)cc3)CC2)o1	> 100	> 100	> 100	> 100	> 100	> 100 µM	> 100	> 100 µM	> 100	> 100 µM	> 100	> 100	4.3	> 100	> 100	> 100	> 100	> 100 µM	> 100	> 100 µM
COC(=O)/C=C1\S/C(=N\NC(=O)c2cc3ccc2/C=C\c2ccc(cc2)/C=C\3)N(c2ccccc2)C1=O	1.71	3.63	1.87	4.95	1.8	3.61 µM	4.89	> 100 µM	1.52	3.86 µM	2.22	5.35	2.46	> 100	2.63	7.46	3.74	30 µM	2.15	5.69 µM
Cn1cc(C2=C(c3c4n(c5ccccc35)CCCCC4)C(=O)NC2=O)c2ccccc21	3.2	> 25	1.36	> 25	1.21	8.05 µM	1.02	8.14 µM	1.42	7.23 µM	> 11.7	> 25	1.19	> 20.9	6.42	> 25	2.53	> 20.2 µM	6.88	> 19.2 µM
C=C(C)C(OC)C(O)CC1(C)CC(O)CC(C)(C2CCC3OC(C4(C)CCC(Br)C(C)(C)O4)CCC3(C)O2)O1 (configuration not stated)	15.4	32.4	19.9	42.3	22.8	58.5 µM	18.2	55.8 µM	18.3	40.4 µM	19.9	38.4	34.9	> 100	20.3	43.8	18.1	38.3 µM	12.7	38.1 µM
C[N+](C)(C)CC(=O)N/N=C(/CC(=O)CC(C1=C(O)c2ccccc2OC1)c1ccccc1)C(=O)Nc1cccc(Cl)c1 (configuration not stated)		> 100		> 100		> 100 µM		> 100 µM		> 100 µM		> 100		> 100		> 100		> 100 µM		> 100 µM
O=C1/C(=C/c2ccc(O)c(O)c2)CCC/C1=C\c1ccc(O)c(O)c1		19		> 48.2		17.8 µM		2.22 µM		9.5 µM		> 33.9		> 89.8		37.4		12.5 µM		> 44.7 µM
